# pIC50: −log10 of the molar value.
# Key:
# human eIF4E protein = molecular target: T1, human eIF4E protein (Homo sapiens, UniProt P06730); assay: Biochemical competitive binding assay (TR-FRET competition, EDA-m7GDP-ATTO-647N probe); conditions: read-out: hEIF4E TR-FRET IC50
# T1 construct: purchased Novus NBP-45314
# Outline: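 IC50 values come from 4-parameter fits of the normalized 665/620 nm TR-FRET ratio. Compound was first incubated 15 min with 4 nM recombinant His-eIF4E bound to 2.5 nM Eu-anti-His antibody, then 15 min with 5 nM m7GDP-ATTO-647N tracer, in pH 7.5 HEPES buffer with 100 mM KCl, Tween-20 and BSA.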
# [1] = test system: cap-dependent translation in Flp-In-293 reporter cells; assay: Cellular cap-dependent translation inhibition assay (dual luciferase assay, DLA; Fluc/Rluc ratio, 24 hours); type: cell-based; conditions: Homo sapiens, Flp-In-293, 24 h, dual luciferase assay, Flp-In-293 reporter cells, 24 hours, Fluc/Rluc ratio; read-out: DLA 205 IC50
# [2] = test system: COLO 205 colorectal tumor cells; assay: Tumor cell viability inhibition assay (CellTiter-Glo 2.0, 72 hours); type: cell-based; conditions: COLO 205 cell viability
# Outline: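 IC50 derived by 4-parameter fitting after normalizing luminescence to DMSO and max-inhibition wells. Compounds tested as 11 concentrations in 4-fold steps on COLO 205 cells seeded at 1500 per well in RPMI-1640/10% FBS; ATP content measured with CellTiter-Glo 2.0 after 72 h.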
# T1 sequence (P06730 whole entry): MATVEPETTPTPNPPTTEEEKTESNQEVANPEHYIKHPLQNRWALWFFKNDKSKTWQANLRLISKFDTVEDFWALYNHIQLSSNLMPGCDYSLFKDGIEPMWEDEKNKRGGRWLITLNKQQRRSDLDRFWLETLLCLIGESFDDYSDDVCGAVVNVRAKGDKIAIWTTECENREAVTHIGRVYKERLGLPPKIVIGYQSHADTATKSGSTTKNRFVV
pIC50 (human eIF4E protein),"pIC50 ([2]; Homo sapiens, COLO 205, 72 h)",pIC50 [2],SMILES,pIC50 [1]
> 7.00,> 5.30,,"Cc1cc(-c2cc(Cl)ccc2OCCn2c(C)nc3c(c2=O)C[C@H](N(C)CC2CC(F)(F)C2)CC32CC2)c2scc(C(=O)O)c2n1 (single isomer, unassigned) [Compound 568]",
> 7.00,> 5.30,,"Cc1cc(-c2cc(Cl)ccc2OCCn2c(C)nc3c(c2=O)C[C@H](N2CC4CCC(C2)C4OC(F)(F)F)CC3)c2scc(C(=O)O)c2n1 (single isomer, unassigned) [Compound 494]",
> 7.00,< 4.70,,"Cc1cc(-c2cc(Cl)ccc2OCCn2c(C)nc3c(c2=O)C[C@@H](N2CCC(c4cn(C)cn4)CC2)CC3)c2scc(C(=O)O)c2n1 (single isomer, unassigned) [Compound 487]",
> 7.00,> 5.30,,"Cc1cc(-c2cc(Cl)ccc2OCCn2c(C)nc3c(c2=O)C[C@H](N2CCC(Oc4ccc(F)cc4F)CC2)CC32CC2)c2scc(C(=O)O)c2n1 (single isomer, unassigned) [Compound 611]",
> 7.00,> 5.30,,"Cc1cc(-c2cc(Cl)ccc2OCCn2c(C)nc3c(c2=O)C[C@H](N2CCC[C@@H](C(F)F)C2)CC3)c2scc(C(=O)O)c2n1 (single isomer, unassigned) [Compound 116]",
6.30 to 7.00,4.70 to 5.30,,"COC1CCN(C2(C)CCc3nc(C)n(CCOc4ccc(Cl)cc4-c4cc(C)nc5c(C(=O)O)csc45)c(=O)c3C2)CC1(C)C (single isomer, unassigned) [Compound 559]",
> 7.00,> 5.30,,"Cc1cc(-c2cc(Cl)ccc2OCCn2c(C)nc3c(c2=O)C[C@H](N2CCC(C(F)(F)F)CC2)CC32CC2)c2scc(C(=O)O)c2n1 (single isomer, unassigned) [Compound 602]",
> 7.00,,> 5.30,"COC1CCN(C2CCc3nc(C)n(CC#Cc4ccc(Cl)cc4-c4ccnc5c(C(=O)NS(C)(=O)=O)csc45)c(=O)c3C2)CC1 (single isomer, unassigned) [Compound 491]",
> 7.00,> 5.30,,"Cc1cc(-c2cc(Cl)ccc2OCCn2c(C)nc3c(c2=O)C[C@@H](N2CCC(O)CC2)CC3)c2scc(C(=O)O)c2n1 (single isomer, unassigned) [Compound 435]",
> 7.00,> 5.30,,"Cc1cc(-c2cc(Cl)ccc2OCCn2c(C)nc3c(c2=O)C[C@H](N2CCC4(CC2)CC4(F)F)CC3)c2scc(C(=O)O)c2n1 (single isomer, unassigned) [Compound 390]",
> 7.00,> 5.30,,"Cc1cc(-c2cc(Cl)ccc2OCCn2c(C)nc3c(c2=O)C[C@H](N2CCC[C@]4(C2)CC4(F)F)CC3)c2scc(C(=O)O)c2n1 (single isomer, unassigned) [Compound 137]",
> 7.00,,> 5.30,"Cc1cc(-c2cc(Cl)ccc2OCCn2c(C)nc3c(c2=O)CC(C)(N2CCC(C(F)(F)F)CC2)CC3)c2scc(C(=O)O)c2n1 (single isomer, unassigned) [Compound 531]",
> 7.00,> 5.30,,"Cc1cc(-c2cc(Cl)ccc2OCCn2c(C)nc3c(c2=O)C[C@H](N2CC[C@H](OC(F)(F)F)C2)CC3)c2scc(C(=O)O)c2n1 (single isomer, unassigned) [Compound 386]",
> 7.00,< 4.70,,"Cc1cc(-c2cc(Cl)ccc2OCCn2c(C)nc3c(c2=O)C[C@@H](N(C)[C@H]2CC[C@](C)(O)CC2)CC3)c2scc(C(=O)O)c2n1 (single isomer, unassigned) [Compound 226]",
> 7.00,> 5.30,,"COC1(C(F)(F)F)CCN([C@@H]2CCc3nc(C)n(CCOc4ccc(Cl)cc4-c4cc(C)nc5c(C(=O)O)csc45)c(=O)c3C2)CC1 (single isomer, unassigned) [Compound 450]",
> 7.00,4.70 to 5.30,,"Cc1cc(-c2cc(Cl)ccc2OCCn2c(C)nc3c(c2=O)C[C@H](N2CC[C@@H](OC(F)(F)F)C(F)(F)C2)CC3)c2scc(C(=O)O)c2n1 (single isomer, unassigned) [Compound 403]",

# Second part, the compound before the results:
SMILES,pIC50 (human eIF4E protein),"pIC50 ([2]; Homo sapiens, COLO 205, 72 h)",pIC50 [2],pIC50 [1]
Cc1cc(-c2cc(Cl)ccc2OCCn2c(C)nc3c(c2=O)CC(N(C)CC(F)F)CC3)c2scc(C(=O)NS(C)(=O)=O)c2n1 (stereo not shown) [Compound 65],> 7.00,> 5.30,,> 6.00
"CO[C@H]1CCN([C@H]2CCc3nc(C)n(CCOc4ccc(Cl)cc4-c4cc(C)nc5c(C(=O)O)csc45)c(=O)c3C2)C1 (single isomer, unassigned) [Compound 44]",> 7.00,> 5.30,,> 6.00
"Cc1cc(-c2cc(Cl)ccc2OCCn2c(C)nc3c(c2=O)CC2(CC3)CN(C3CC3)C2)c2scc(C(=O)O)c2n1 [Compound 270, 7-(5-chloro-2-(2-(1-cyclopropyl-2′-methyl-4′-oxo-7′,8′-dihydro-4′H-spiro[azetidine-3,6′-quinazolin]-3′(5′H)-yl)ethoxy)phenyl)-5-methylthieno[3,2-b]pyridine-3-carboxylic acid]",> 7.00,4.70 to 5.30,,> 6.00
Cc1nc2c(c(=O)n1CC#Cc1ccc(Cl)cc1-c1ccnc3c(C(=O)NS(C)(=O)=O)csc13)CC(N1CC(F)C1)CC2 (stereo not shown) [Compound 325],> 7.00,> 5.30,,> 6.00
"Cc1csc([C@H]2CCCN([C@H]3CCc4nc(C)n(CCOc5ccc(Cl)cc5-c5cc(C)nc6c(C(=O)O)csc56)c(=O)c4C3)C2)n1 (single isomer, unassigned) [Compound 482]",> 7.00,> 5.30,,
"Cc1cc(-c2cc(Cl)ccc2OCCn2c(C)nc3c(c2=O)C[C@H](N2CCC[C@@]4(C2)CC4(F)F)CC3(C)C)c2scc(C(=O)O)c2n1 (single isomer, unassigned) [Compound 439]",> 7.00,> 5.30,,
"Cc1cc(-c2cc(Cl)ccc2OCCn2c(C)nc3c(c2=O)C[C@@H](N2CCCC[C@H]2c2nccs2)CC3)c2scc(C(=O)O)c2n1 (single isomer, unassigned) [Compound 548]",6.30 to 7.00,< 4.70,,
"Cc1cc(-c2cc(Cl)ccc2OCCn2c(C)nc3c(c2=O)C[C@H](N2CCC(c4cnn(C)c4)CC2)CC3)c2scc(C(=O)O)c2n1 (single isomer, unassigned) [Compound 426]",> 7.00,4.70 to 5.30,,
"Cc1cc(-c2cc(Cl)ccc2OCCn2c(C)nc3c(c2=O)C[C@H](N2CCCCC(F)(F)C2)CC3)c2scc(C(=O)O)c2n1 (single isomer, unassigned) [Compound 469]",> 7.00,> 5.30,,
"Cc1cc(-c2cc(Cl)ccc2OCCn2c(C)nc3c(c2=O)C[C@H](N2[C@@H]4CC[C@H]2C[C@@H](OC(F)(F)F)C4)CC3)c2scc(C(=O)O)c2n1 (single isomer, unassigned) [Compound 398]",6.30 to 7.00,< 4.70,,
"COC1(C(F)(F)F)CC2CCC(C1)N2[C@@H]1CCc2nc(C)n(CCOc3ccc(Cl)cc3-c3cc(C)nc4c(C(=O)O)csc34)c(=O)c2C1 (single isomer, unassigned) [Compound 504]",> 7.00,> 5.30,,
"[2H]C1(N2CCC(OC(F)(F)F)CC2)CCc2nc(C)n(CCOc3ccc(Cl)cc3-c3cc(C)nc4c(C(=O)O)csc34)c(=O)c2C1 (single isomer, unassigned) [Compound 370]",> 7.00,,> 5.30,
"Cc1cc(-c2cc(Cl)ccc2OCCn2c(C)nc3c(c2=O)C[C@H](N2CCC(C(F)(F)F)CC2)CC3)c2scc(C(=O)O)c2n1 (single isomer, unassigned) [Compound 373]",> 7.00,> 5.30,,
"Cc1cc(-c2cc(Cl)ccc2OCCn2c(C)nc3c(c2=O)C[C@H](N2CCC(c4ccn(C)n4)CC2)CC3)c2scc(C(=O)O)c2n1 (single isomer, unassigned) [Compound 453]",> 7.00,< 4.70,,
"Cc1cc(-c2cc(Cl)ccc2OCCn2c(C)nc3c(c2=O)C[C@H](N2CCC4(CC2)NC(=O)NC4=O)CC3)c2scc(C(=O)O)c2n1 (single isomer, unassigned) [Compound 430]",> 7.00,> 5.30,,
"Cc1cc(-c2cc(Cl)ccc2OCCn2c(C)nc3c(c2=O)C[C@H](N2CCCC[C@H]2c2cccc(C(F)(F)F)c2)CC3)c2scc(C(=O)O)c2n1 (single isomer, unassigned) [Compound 587]",> 7.00,> 5.30,,
"COc1cc(CN(CC(F)F)C2CCc3nc(C)n(CCOc4ccc(Cl)cc4-c4cc(C)nc5c(C(=O)O)csc45)c(=O)c3C2)ccn1 (stereo not shown) [Compound 112, 7-[2-[2-[6-[2,2-bis(fluorenyl)ethyl-[(2-methoxy-4-pyridyl)methyl]amino]-2-methyl-4-oxidanylidene-5,6,7,8-tetrahydroquinazolin-3-yl]ethoxy]-5-chloranyl-phenyl]-5-methyl-thieno[3,2-b]pyridine-3-carboxylic acid]",> 7.00,4.70 to 5.30,,
"Cc1cc(-c2cc(Cl)ccc2OCCn2c(C)nc3c(c2=O)C[C@](C)(N2CCC[C@]4(C2)CC4(F)F)CC3)c2scc(C(=O)O)c2n1 (single isomer, unassigned) [Compound 553]",> 7.00,> 5.30,,
"Cc1csc(C2CCN([C@H]3CCc4nc(C)n(CCOc5ccc(Cl)cc5-c5cc(C)nc6c(C(=O)O)csc56)c(=O)c4C3)CC2)n1 (single isomer, unassigned) [Compound 428]",> 7.00,> 5.30,,
"Cc1cc(-c2cc(Cl)ccc2OCCn2c(C)nc3c(c2=O)CC(N2CCC4(CC2)CN(CC(F)(F)F)CCO4)CC3)c2scc(C(=O)O)c2n1 (single isomer, unassigned) [Compound 518]",> 7.00,,> 5.30,

# Reference: patent US20240246918A1, “COMPOUNDS AND COMPOSITIONS AS EIF4E INHIBITORS AND THE USES THEREOF” (Ribometrix, Inc., priority 2022, published 2024)
